In patent publication US12194070B2, “Traditional chinese medicine compound for improving testicular dysfunction, preparation method and application thereof” (Ningxia Medical University, priority 2023, dated 2025):
Where a name gives a salt, the structure may show the parent alone.

How the values were obtained:
Assay type in all cases: in vivo, C57BL/6J mice
Bcl-2 = experiment: Western blot of Bcl-2 expression in testis; settings: Western blot gray values, metformin 200 mg/kg/d, after 30 days
Protocol: (§1) Protein samples are taken and added into concentrated gel of an electrophoresis tank for running the gel, transferring the protein from the gel to the membrane, bovine albumin (BSA) blocking and membrane washing, then primary antibodies (including PI3K (rabbit antibody), AKT (rabbit antibody), p-AKT (rabbit antibody), β-actin (rabbit antibody), Bcl-2 (rabbit antibody) and β-actin (mouse antibody) diluted at the concentration 1:1000) are added for incubation and stay overnight in the refrigerator at 4° C.; the next day, the membrane is washed, after the secondary antibodies (including: a mouse secondary antibody (1:5000) and a rabbit secondary antibody (1:2000)) are added for incubation and blocked, the membrane is washed, followed by development, and then gray values are analyzed. Data is analyzed using GraphPad Prism 8.4 statistical software. Counting data of experimental results is expressed as rate/percentage (%), and measurement data is expressed as x±s. The one-way ANOVA is used to compare the groups, and the difference is statistically significant with P<0.05.

PI3K = experiment: Western blot of PI3K expression in testis; settings: Western blot gray values, metformin 200 mg/kg/d, after 30 days
Protocol: as §1

mouse testis tissue = experiment: HE staining of testis tissue (testicular morphology); settings: HE staining 200x; metformin 200 mg/kg/d, after 30 days
GSH-px = experiment: Serum GSH-Px by colorimetry; settings: metformin 200 mg/kg/d, after 30 days
Protocol: (§2) The levels of T-SOD, MDA and GSH-px in serum are measured by colorimetry, and the level of testosterone (T) in serum is measured by enzyme linked immunosorbent assay (ELISA), all according to the manufacturer's instructions. Data is analyzed using GraphPad Prism 8.4 statistical software. Counting data of experimental results is expressed as rate/percentage (%), and measurement data is expressed as x±s. The one-way ANOVA is used to compare the groups, and the difference is statistically significant with P<0.05.

[1] = test system: mice with testicular dysfunction caused by obese type 2 diabetes mellitus; experiment: Oral glucose tolerance test (OGTT); settings: metformin 200 mg/kg/d, after 30 days; blood glucose 0-120 min after gavage
Protocol: (§3) 2.3 After 30 days of administration of each group in step 2.2, the following tests are performed in each group.
(§4) OGTT test: the mice are weighed after 15 h fast, fasting blood glucose (FPG) of the mice is measured separately, and the amount of glucose is determined based on the mice's weight. Blood glucose fluctuations are then monitored at 15 min, 30 min, 60 min and 120 min after gavage. Data is analyzed using GraphPad Prism 8.4 statistical software. Counting data of experimental results is expressed as rate/percentage (%), and measurement data is expressed as x±s. The one-way ANOVA is used to compare the groups, and the difference is statistically significant with P<0.05.

[2] = test system: mice with testicular dysfunction caused by obese type 2 diabetes mellitus; experiment: Fasting blood glucose (FPG); settings: metformin 200 mg/kg/d, day 30
Protocol: as §4
(§5) ITT test: the mice are weighed after 5 h fast, the insulin dosage is calculated, and FPG of the mice is measured. Blood glucose fluctuations are then monitored at 15 min, 30 min, 60 min and 120 min after insulin is given. Data is analyzed using GraphPad Prism 8.4 statistical software. Counting data of experimental results is expressed as rate/percentage (%), and measurement data is expressed as x±s. The one-way ANOVA is used to compare the groups, and the difference is statistically significant with P<0.05.

MDA = experiment: Serum MDA by colorimetry; settings: metformin 200 mg/kg/d, after 30 days
Protocol: as §2

[3] = test system: obese type 2 diabetic mice; experiment: Testis, epididymis and seminal vesicle gland coefficients; settings: metformin 200 mg/kg/d, after 30 days
testosterone (T) = experiment: Serum testosterone by ELISA; settings: metformin 200 mg/kg/d, after 30 days
Protocol: as §2

[4] = Body weight of mice with testicular dysfunction caused by obese type 2 diabetes mellitus; design: AUC of weight before treatment: unit not given beside the values
Protocol: With six mice in each group, the mice are randomly assigned after one week of adaptive rearing to a control group (Con), a model group (Model), a high-dose compound group (YPBS-H), a low-dose compound group (YPBS-L) and a metformin group (Metformin, Met). The six mice in the control group are given regular feed, the remaining mice are fed with 60% high-fat feed, the weight of each of mice is recorded every 7 days during the feeding.
The mice in each group have been successfully established after feeding for 16 weeks in step 2.1, and the mice in each group are given medicine treatment as follows.
The high-dose compound group (YPBS-H): the traditional Chinese medicine compound obtained in the embodiment 1 is given at a dose of 4 grams per kilogram per day (g/kg/d) per animal.
The low-dose compound group (YPBS-L): the traditional Chinese medicine compound obtained in the embodiment 1 is given at a dose of 2 g/kg/d per animal.
The metformin group (Met): the metformin is given at a dose of 200 mg/kg/d per animal.
During the administration, the mice are fed with the normal feed and drink water normally, and the weight changes of mice are observed. Data is analyzed using GraphPad Prism 8.4 statistical software. Counting data of experimental results is expressed as rate/percentage (%), and measurement data is expressed as x (i.e., mean)±s. The one-way analysis of variance (ANOVA) is used to compare the groups, and the difference is statistically significant with P<0.05.

p-AKT = experiment: Western blot of p-AKT expression in testis; settings: Western blot gray values, metformin 200 mg/kg/d, after 30 days
Protocol: as §1

[5] = test system: sperm of obese type 2 diabetic mice; experiment: Analysis of semen parameters; settings: metformin 200 mg/kg/d, after 30 days
Protocol: One side of epididymis in each group is put into a 12-well plate, diluted with 500 μL of normal saline, fully cut into pieces by a tissue scissor, incubated in a 37° C. incubator, and filtered by a 200-mesh sieve, and 20 μL of filtrate is collected on a cell counting plate, observed under a microscope, and the number of sperm is counted. Sperm viability, sperm motility and malformation rate are counted respectively by Yin Hong aniline black and Diff-Quick staining. Data is analyzed using GraphPad Prism 8.4 statistical software. Counting data of experimental results is expressed as rate/percentage (%), and measurement data is expressed as x±s. The one-way ANOVA is used to compare the groups, and the difference is statistically significant with P<0.05.

T-SOD = experiment: Serum T-SOD by colorimetry; settings: metformin 200 mg/kg/d, after 30 days
Protocol: as §2

[6] = test system: obese type 2 diabetic mice; experiment: Cage experiment (fertility)
Protocol: Female mice of childbearing age are caged with male mice of each group in the ratio of 2:1 for one week, and their fertility is tested by the birth situation.

sperm and egg cells = experiment: In vitro fertilization with sperm of the treated mice
From the text: The sperm of the mice in each group is taken for fertilization in vitro.

[7] = test system: mice with testicular dysfunction caused by obese type 2 diabetes mellitus; experiment: Insulin tolerance test (ITT); settings: metformin 200 mg/kg/d, after 30 days; blood glucose 0-120 min after insulin
Protocol: as §3, §5

[8] = after treatment, dose group not stated
[9] = females caged with males 2:1 for one week, males given metformin 200 mg/kg/d
[10] = of 10 egg cells, sperm of mice given metformin 200 mg/kg/d

SMILES: CN(C)C(=N)N=C(N)N [Met, metformin hydrochloride]
- Bcl-2/β-actin (Bcl-2): 1.020 ± 0.076^Δ
- PI3K/β-actin (PI3K): 0.945 ± 0.056^Δ
- testicular morphology compared to the model group (mouse testis tissue): considerably improved
- GSH-Px (GSH-px): 2206.0 ± 535.6^Δ umol/L
- OGTT-AUC [1]: 1660 ± 70.3^Δ
- FPG on the 30th day after treatment [2]: 5.5 ± 0.9^Δ
- MDA (MDA): 5.6 ± 1.5^Δ umol/L
- Epididymis coefficient [3]: 0.33 ± 0.03^Δ %
- Seminal vesicle gland coefficient [3]: 1.21 ± 0.06^Δ %
- Testis coefficient [3]: 0.65 ± 0.04^Δ %
- Testosterone T (testosterone (T)): 5.06 ± 1.42 ng/mL
- AUC of weight before treatment ([4]; before treatment (16 weeks high-fat feed), metformin group): 613.8 ± 5.3^Δ
- AUC of weight after treatment ([4]; metformin 200 mg/kg/d, 30 days): 1243.0 ± 12.0^Δ
- Weight on the 30th day after treatment ([4]; metformin 200 mg/kg/d, day 30): 37.9 ± 2.2^Δ g
- p-AKT/AKT (p-AKT): 0.635 ± 0.141
- Sperm count [5]: 85.02 ± 10.55^Δ 10^6/L
- Sperm malformation rate [5]: 68.18 ± 4.12^Δ %
- Sperm motility [5]: 34.55 ± 0.37^Δ %
- Sperm viability [5]: 43.84 ± 3.59^Δ %
- T-SOD (T-SOD): 168.4 ± 34.7^Δ U/mgprot
- fertility of the mice [6, 8]: improved, reaching the normal fertility level
- Average number of offspring [6, 9]: 5.3
- Pregnancy rate [6, 9]: 50%
- Vaginal suppository [6, 9]: 50%
- binding rate of sperm and egg cells (sperm and egg cells; [8]): increases
- division of fertilized egg cells (sperm and egg cells; [8]): divide normally
- Number of division of fertilized eggs within 24 hours (sperm and egg cells; [10]): 7
- Sperm and egg binding number (sperm and egg cells; [10]): 7
- ITT-AUC [7]: 760.7 ± 49.5^Δ
